System: Russian thistle
Test: Test C pre-/postemergence test
Format: in vivo, Salsola kali
Conditions: for Plant response rating, Russian Thistle: scale 0 to 100 (0 no effect, 100 complete control)
Source text: Seeds of plant species selected from blackgrass (Alopecurus myosuroides), downy brome (Bromus tectorum), green foxtail (Setaria viridis), Italian ryegrass (Lolium multiflorum), wheat (Triticum aestivum), wild oat (Avena fatua), catchweed bedstraw (Galium aparine), Russian thistle (Salsola kali), […] (Cynodon dactylon), Surinam grass (Brachiaria decumbens), cocklebur (Xanthium strumarium), corn (Zea mays), crabgrass (Digitaria sanguinalis), woolly cupgrass (Eriochloa villosa), giant foxtail (Setaria faberii), Goosegrass (Eleusin indica), johnsongrass (Sorghum halepense), kochia (Kochia scoparia), lambsquarters (Chenopodium album), morningglory (Ipomoea coccinea), eastern black nightshade (Solanum ptycanthum), yellow nutsedge (Cyperus esculentus), pigweed (Amaranthus retroflexus), common ragweed (Ambrosia elation), soybean (Glycine max), common (oilseed) sunflower (Helianthus annuus), and velvetleaf (Abutilon theophrasti) were planted and treated preemergence with test chemicals formulated in a non-phytotoxic solvent mixture which included a surfactant. At the same time, plants selected from these crop and weed species and also winter barley (Hordeum vulgare), canarygrass (Phalaris minor), and chickweed (Stellaria media) were treated with postemergence applications of some of the test chemicals formulated in the same manner. Plants ranged in height from 2 to 18 cm (1- to 4-leaf stage) for postemergence treatments. […] At time of treatment, test pots were flooded to 3 cm above the soil surface, treated by application of test compounds directly to the paddy water, and then maintained at that water depth for the duration of the test. […] A dash (-) response means no test result.

[1] = 62 g ai/ha, Preemergence, scale 0 to 100
[2] = 125 g ai/ha, preemergence, scale 0 (no effect) to 100 (complete control)
[3] = preemergence, 250 g ai/ha, scale 0 (no effect) to 100 (complete control)

SMILES | Russian Thistle plant response rating [1] | Plant response rating, Russian Thistle (Preemergence, 31 g ai/ha) | Russian Thistle plant response rating [2] | Russian Thistle plant response rating [3] | Russian Thistle plant response rating (31 g ai/ha, Preemergence, scale 0 to 100) | Russian Thistle plant response rating (62 g ai/ha, preemergence, scale 0 (no effect) to 100 (complete control)) | Plant response rating (0 to 100), Russian Thistle (Preemergence, 250 g ai/ha) | Russian Thistle plant response rating (preemergence, 125 g ai/ha, scale 0 (no effect) to 100 (complete control))
Cn1nc(C(F)(F)F)c(C[S+]([O-])c2cc(C(F)(F)F)cc[n+]2[O-])c1Cl (racemic) [Compound 34] | 100 | 70 | – | – | – | – | – | –
[O-][n+]1cc(Cl)ccc1[S+]([O-])Cc1c(C(F)(F)F)nn(CC(F)(F)F)c1Cl (stereo not shown) [Compound 47] | – | – | 0 | 100 | – | – | – | –
Cn1nc(C(F)(F)F)c(C[S+]([O-])c2cc(Br)cc[n+]2[O-])c1Cl (racemic) [Compound 35] | 100 | 100 | 100 | 100 | – | – | – | –
CC(c1c(C(F)(F)F)nn(C)c1OC(F)F)S(=O)(=O)c1cc(C(C)(C)C)cc[n+]1[O-] (racemic) [Compound 26] | 50 | 0 | – | – | – | – | – | –
Cn1nc(C(F)(F)F)c(C(Cl)S(=O)(=O)c2cccc[n+]2[O-])c1Cl (stereo not shown) [Compound 12] | – | – | – | – | 100 | 100 | 100 | 100
CCc1cc[n+]([O-])c([S+]([O-])Cc2c(C(F)(F)F)nn(C)c2OC(F)F)c1 (stereo not shown) [Compound 101] | 100 | 100 | 100 | 100 | – | – | – | –
Cn1nc(C(F)(F)F)c(C[S+]([O-])c2cccc[n+]2[O-])c1OCC(F)F (stereo not shown) [Compound 75] | 100 | 100 | 100 | 100 | – | – | – | –
CCc1cc[n+]([O-])c(S(=O)(=O)Cc2c(C(F)(F)F)nn(C)c2OC(F)F)c1 [Compound 102] | 100 | 100 | 100 | 100 | – | – | – | –
Cn1nc(C(F)(F)F)c(C(Cl)S(=O)(=O)c2cccc[n+]2[O-])c1OC(F)F (stereo not shown) [Compound 51] | 100 | 40 | 100 | 100 | – | – | – | –
C#CCOc1c(CS(=O)(=O)c2cccc[n+]2[O-])c(C(F)(F)F)nn1C [Compound 103] | 100 | 100 | 100 | 100 | – | – | – | –

— patent US20100298141A1, “SUBSTITUTED PYRIDINE N-OXIDE HERBICIDES” (E. I. DU PONT DE NEMOURS AND COMPANY, priority 2007, published 2010)
